Patent publication US12251234B2, “Systems and methods for transdermally detecting tissue ischemia and evaluating organ function using serum luminescence” (University of Macau, priority 2018, dated 2025)

Tests used:
liver = test: Biochemical assay of rat serum in DEN-induced hepatocellular carcinoma rat model; type: in vivo
Description: Hepatocellular carcinoma (HCC) is a well-known malignant liver tumor often caused by liver cirrhosis. N-Nitrosodiethylamine ([…], DEN), which is a toxic substance with strong liver toxicity, was used to induce HCC in a rat tumor model. The dose of 300 g rats was 0.75 ml DEN/5 liters in drinking water; the dose of 400 g rats was 1.0 ml DEN/5 liters in drinking water. When the rats weighed over 200 g (about 6-7 weeks), they started to be fed. Group 1 was fed a half dose DEN, while Group 3 was fed a full dose. After 6 weeks of consecutive feeding (at the 12th week of experiment), feeding DEN to Group 1 discontinued. Group 3 continued scheduled DEN feedings for three additional weeks. Liver tumors were formed and confirmed by high-frequency ultrasonic imaging in vivo.
After rats were sacrificed, blood was collected and centrifuged, and the serum from centrifuge was tested, which included albumin, total bilirubin, glutamic pyruvic transaminase and glutamic oxaloacetic transaminase. If the liver is abnormal, the albumin content in the blood will decrease. Total bilirubin contains direct bilirubin and indirect bilirubin, which are the product of liver metabolism. If liver function is abnormal, total bilirubin in blood rises. Glutamic-pyruvate transaminase (GPT) and glutamic oxaloacetic transaminase (GOT) are also commonly used markers to evaluate liver function, although these two enzymes are not only found in the liver. Nevertheless, they are more abundant in liver cells than in other organs or tissue. When the liver is damaged, inflamed liver cells release GPT and GOT into the blood in large quantities. Therefore, the amount of these factors in the blood may be useful as a basis for judging the health of liver function. In addition, the liver was made into a paraffin block and processed with H&E staining. The staining results were observed and imaged by Nikon ECLIPSE NiE orthotropic fluorescence microscope.

[1] = ICG fluorescence dosimetry in rat blood vessels (retention/decay of ICG in circulation); type: in vivo
Description: Embodiments of the present disclosure enable systems and methods for detecting organ dysfunction and were validated using two optical systems to perform ICG fluorescence dosimetry on rats developing hepatocellular carcinoma (HCC).
One optical system used was a multiphoton microscope, which can non-invasively identify the location of vessels in vivo from sectioning two-photon fluorescence imaging. Time-course dynamics of concentration decay were also analyzed by the signal intensity within vessels. The other tested optical system was a point excitation and time course measurement using a 785 nm laser.
As shown in the diagram of FIG. 11, the multiphoton microscopy system used the scanning inverted microscope system of Leica DMI 3000M. The laser source was the femtosecond Cr:forsterite laser with a central wavelength of about 1250 nm. The output power was about 570 mW, and the beam diameter was about 2.5 mm. The excited light passed through a set of Galilean telescopes consisting of flat convex lenses and flat concave lenses to shrink the beam size down below 2 mm. Then, the excited beam passed through the periscope to rotate the polarization. After passing through the Iris Pair for system alignment, the beam entered a scanning module composed of a 16 kHz resonant mirror and a galvanometer mirror. The scanning angle of the resonant scanner was 5 degrees. The excited light was expanded by a set of relaying lenses so that it just filled the back aperture of the objective lens. The excitation beam was reflected by a 900-nm edged dichroic beam splitter (DM 900 SP) and focused by an objective lens (63×/NA 1.15. Zeiss) to excite biological tissues.
The generated two-photon fluorescence signals of ICG were epi-collected by the same objective lens and penetrated the DM900 SP. The signals were directed to a 484 nm edged dichroic beam splitter (DM484LP). The third harmonic generation signal (417 nm) was separated from the fluorescent signals longer than 484 nm. The third harmonic generation (THG) and two photon fluorescent (TPF) signals were filtered by a 414 nm/18 nm band pass filter and a 650 nm long pass filter, respectively. These signals were subsequently detected by photomultiplier tubes and digitized by a field programmable logic gate array (FPGA).
After the injection of ICG into the tail, there was a relatively low scattering and absorption of laser in the 1230 nm band, so the wavelength band could penetrate the skin deeper, and the background noise was low. Because blood cells can give strong THG signals, it was possible to locate the blood vessel by using THG imaging, as shown in FIG. 15A. Before ICG injection, there was no TPF signal (see FIG. 15B). After the injection, the TPF signals appeared immediately in the region of vessel (see FIG. 15C).
By selecting the region of interest (ROI) within vessel, we quantified the TPF intensity within the vessels. The fluorescence dosimetry curve of ICG can thus be measured (as shown in FIG. 16), which is ideal to evaluate the liver function. The dosimetry curve can be fitted with a single exponential decay function (red curve in FIG. 16), which represents a 4.4 minutes decay time constant after injection of ICG. The decay constant can be used as an index to evaluate the liver function. For Group 1 and Group 3 four serum parameters were measured to obtain liver function information: serum albumin, total bilirubin, GPT, and GOT. […]

[2] = healthy person; cited from earlier work
[3] = Group 1: half dose DEN in drinking water, 6 weeks
[4] = Group 3: full dose DEN in drinking water, 9 weeks
[5] = Group 3 rats (full dose DEN, HCC), FIG. 18

Work on `CCN(CC)N=O` [DEN, N-Nitrosodiethylamine] yielded an Albumin (liver; [3]) of 3.9 g/dL, a GOT (liver; [3]) of 89 U/L and a GPT (liver; [3]) of 60.3 U/L. For the same compound, the Total bilirubin (liver; [3]) was 0.27 mg/dL, the Albumin (liver; [4]) was 3.75 g/dL and the GOT (liver; [4]) was 265 U/L. The GPT (liver; [4]) was 129 U/L and the Total bilirubin (liver; [4]) was 0.6 mg/dL.
For `CC1(C)C(/C=C/C=C/C=C/C=C2\N(CCCCS(=O)(=O)O)c3ccc4ccccc4c3C2(C)C)=[N+](CCCCS(=O)(=O)[O-])c2ccc3ccccc3c21` [ICG, indocyanine green], the “decay time (exponential decay model fit)” value [1, 5] was 13 min, the “initial amount still retained in circulation at 15 minutes post injection” value [1, 5] was 45% and the “decay time constant after injection of ICG (single exponential decay fit)” value ([1]; healthy control Group rats, FIG. 16) was 4.4 min. The “amount of ICG metabolized within 15 minutes” value ([1]; healthy control Group rats, TPF dosimetry curve, FIG. 16) was 90%, the “leakage of ICG out of blood vessels (TPF imaging after tail injection)” value ([1]; rat, sectioning TPF/THG images, FIG. 15) was “did not leak out into extravascular spaces” and the “ICG-15 (retention percentage at 15 minutes post ICG injection)” value [2] was “below 10 % of the initial concentration”.
